Data set [1] is described as follows: Recrystallization screen for bupropion hydrobromide polymorphic forms (PXRD). Format: physicochemical. The protocol:
It is well known that organic molecules can crystallize into solid forms. Moreover the same organic compound may assume different crystalline arrangements in solid form, depending on the conditions under which the crystal product is formed. This phenomenon is commonly known as polymorphism. A study was undertaken to explore the polymorphic forms of bupropion hydrobromide. The crystal forms of the products obtained in this study were determined by powder X-ray diffraction (PXRD). A RIGAKU miniflex instrument (Radiation Cu K∝, generator 30 KV, filter Ni) was used to obtain the PXRD data.
Polymorphic form II was obtained by recrystallization of form 1 from solvents or mixtures of solvents such as acetone-water, methanol, dichloromethane, toluene-methanol and dimethylcarbonate-methanol. Polymorphic form III was obtained by recrystallization of polymorphic form I in methanol. Table 80 provides a list of recrystallization conditions and the polymorphic form obtained under each set of conditions.

Data set [2] in a line: Stability of bupropion HBr polymorphic forms I, II and III by PXRD under ICH conditions. It is filed as physicochemical. The note with it: for Stability of the polymorphic form (words): ICH conditions 40° C., 75% R.H.; for Stability of the polymorphic form (words) / PXRD profile / crystalline form after storage (words): hydrobromide; for PXRD profile / crystalline form after storage (words): ICH conditions 40° C./75% r.h., 1 month. The protocol: It is well known that organic molecules can crystallize into solid forms. Moreover the same organic compound may assume different crystalline arrangements in solid form, depending on the conditions under which the crystal product is formed. This phenomenon is commonly known as polymorphism. […] The crystal forms of the products obtained in this study were determined by powder X-ray diffraction (PXRD). A RIGAKU miniflex instrument (Radiation Cu K∝, generator 30 KV, filter Ni) was used to obtain the PXRD data.
The three polymorphic forms were subjected to stability testing. […] Samples of the polymorphic forms II and III were tested after 1 month under the same accelerated stability conditions.
Samples of bupropion HBr form I were subjected to the conditions for the accelerated stability study as described in Example 10 and the shelf life stability study as described in Example 11.
10 g of bupropion HBr form I were dissolved in a mixture of 170 ml of acetone and 7 ml of water. The mixture was brought to reflux with dissolution of the solid. The solution was then cooled to room temperature. After one night the precipitate formed was filtered and dried at 40° C. under vacuum (30 mmHg) for 12 hours. […] The crystalline form was checked after maintaining the product under these conditions for 1 month.
The mixture was brought to reflux obtaining complete dissolution of the solid. The solution was then cooled to room temperature without stirring and left in these conditions for 18 hours. The resulting crystalline solid was then filtered and dried under vacuum (30 mmHg) at 50° C. for 4 hours. […] The crystalline form was checked after maintaining the product in these conditions for 1 month.

Data set [3] in a line: Thermal analysis by TGA of bupropion salts. The note with it: for TGA: weight lost between room temperature and 100° C.: room temperature to 100° C. Format: physicochemical. The method, then:
2-5 mg of each salt was placed in an aluminium pan and covered with its lid. DSC was run for each sample at the rate of 10° C./min (for HBr salt, different rates were used to investigate for polymorphs) from 30° C. to 400° C. TGA was also used for each of the HBr, HCl, maleate and tosylate salts.
(§1) The salts were analysed by DSC (at 10° C./min from 30° C. up to 400° C.) and the pH (aq. 0.5%), and the moisture content by KF were also measured. The TGA was performed on the HCl, maleate, tosylate and HBr salts.

Data set [4] is described as follows: pH of 0.5% aqueous solution of bupropion salts. Format: physicochemical. The note with it: 0.5% aqueous solution; for pH (aq. 0.5%), Original (Initial APIs): original API salts. The method, then:
(§2) The eight salts were first evaluated by HPLC, KF, pH and DSC for purity, water content, aqueous pH and possible polymorphs.
as §1

Data set [5] is described as follows: Moisture content of bupropion salts by KF. Format: physicochemical. The note with it: for KF (moisture content), Original (Initial APIs): original API salts. The method, then: as §2, §1
Data set [6] can be described thus: Forced degradation stability study of bupropion salts spiked with placebo/excipients, closed vials, 40° C./75% RH, HPLC assay and impurities. The note with it: 32 days, closed vials. The protocol:
The stability of the salts was evaluated based on the formation of the main degradation products (see below) as determined by HPLC analysis and the % potency (or assay) of the API, after specific time periods in the stability chamber. The effect of the addition of solvents, such as water, ethanol and isopropyl alcohol, was also studied.
The samples of each salt and the spiked salts with the bupropion HCl XL were prepared under the conditions mentioned in Table 4. […] The stability of the bupropion salts were evaluated based on the formation of the main degradation product 3-chlorobenzoic acid (3-CBZ) and the intermediate degradation products diketone 827U76 and the ketohydroxyl derivatives (20U78 and 852U77) (Scheme 2).
As mentioned above, the stability samples were prepared in 2 mL vials and used directly for assay and impurity analysis by HPLC without further sample preparations to minimize errors.

[7] abbreviates: recrystallized product, solvent/cosolvent differ per trial, trial no. in label.

Experimental findings from patent US7884136B2, “Modified-release formulations of a bupropion salt” (Biovail Laboratories International S.R.L., priority 2005, dated 2011) are described below.

Marks after values point to notes of the source that are not given here.

For `Br.CC(NC(C)(C)C)C(=O)c1cccc(Cl)c1` (stereo not shown) [Bupropion Hydrobromide 116], the “K.F. (%)” value in data set [1] (Form I in rotavapor 100° C. 24 h) was found to be 0.45%.
`Br.CC(NC(C)(C)C)C(=O)c1cccc(Cl)c1` (stereo not shown) [Bupropion Hydrobromide 117]: the “K.F. (%)” value in data set [1] (setting [7]) was determined as 0.32%.
Take `Br.CC(NC(C)(C)C)C(=O)c1cccc(Cl)c1` (stereo not shown) [Bupropion Hydrobromide 122]: the “K.F. (%)” value in data set [1] (setting [7]) is 1.3%.
As to `Br.CC(NC(C)(C)C)C(=O)c1cccc(Cl)c1` (stereo not shown) [Form I, bupropion hydrobromide], in data set [2] (listed as form I), the “Stability of the polymorphic form (words)” value (from here on “Stability”) is recorded as “quite stable”. Moreover, the “PXRD profile after storage” value in data set [2] (accelerated (40° C./75% RH) and shelf life conditions, 3 months and 6 months) is listed as “gave the same results”.
On to `Br.CC(NC(C)(C)C)C(=O)c1cccc(Cl)c1` (stereo not shown) [Form II, bupropion hydrobromide], for which the “Stability” value in data set [2] (listed as form II) is recorded as “quite stable”. In addition, the figures for the “PXRD profile / crystalline form after storage (words)” value (from here on “PXRD profile / crystalline form”) in data set [2] (listed as bupropion HBr form II) and in data set [2] (listed as form II) were “still in form II” and “no change in the PXRD profile”, respectively.
With `Br.CC(NC(C)(C)C)C(=O)c1cccc(Cl)c1` (stereo not shown) [Form III, bupropion hydrobromide], in data set [2] (listed as form III), the “Stability” value is “not as stable as forms I and II”; the “PXRD profile / crystalline form” value is on record as “conversion to form II”. Further, the “PXRD profile / crystalline form” value in data set [2] (listed as bupropion HBr form III) is listed as “the majority of the product changed to form II”.
As for Bupropion maleate, in data set [3], the “TGA: residue at 400° C.” value is reported as “minimal residues”; the “TGA: weight lost between room temperature and 100° C.” value was determined as 1.3%. In addition, the “TGA: thermally stable to at least” value in data set [3] (TGA) was “at least 150 °C”. For the same molecule, the “pH (aq. 0.5%), Original (Initial APIs)” value in data set [4] is 4.29. In data set [5], the “KF (moisture content), Original (Initial APIs)” value is given as 0.10%. For the same molecule, in data set [6] (In IPA/EtOH), the “Content of impurity 3-CBZ, order of salts” value was “maleate > HBr > HCl > Fumarate”; the “Content of impurity 852U77, order of salts” value (“Content of impurity 852U77” below) is “fumarate > HBr ≈ HCl ≈ maleate ≈ tosylate”; the “Total imp., order of salts” value is on record as “fumarate > maleate > HBr > HCl > tosylate”. In addition, in data set [6] (In water), the “Content of impurity 3-CBZ, order of salts” value is “HCl > HBr ≈ maleate ≈ fumarate”; the “Content of impurity 852U77” value was “fumarate > HBr > maleate > HCl”; the “Total imp., order of salts” value was “fumarate > HBr > HCl > tosylate > maleate”.
In the case of Bupropion tosylate, in data set [3], the “TGA: residue at 400° C.” value is given as 10.3%. For the same molecule, the “TGA: weight lost between room temperature and 100° C.” value in data set [3] came out at 1.3%. The “pH (aq. 0.5%), Original (Initial APIs)” value in data set [4] turned out to be 5.56. Moreover, the “pH (aq. 0.5%), After recrystallization (R&D), Tested after 1 day” value in data set [4] (re-crystallized salt) is 5.88. Also, the “KF (moisture content), Original (Initial APIs)” value is recorded as 1.71% in data set [5] and 1.71* % in data set [5] (listed as Bup-Tosylate). Also, the “KF, After recrystallization (R&D), Tested after 2 Months” value in data set [5] (re-crystallized salt, 2 months) was found to be 0.18%. Besides, the “KF, After recrystallization (R&D), Tested after 1 day” value in data set [5] (re-crystallized salt) amounted to 0.23%; in data set [5] (re-crystallized salt, listed as Bup-Tosylate) it was 023%. Also, the “Content of impurity 852U77” value in data set [6] (In IPA/EtOH) was “fumarate > HBr ≈ HCl ≈ maleate ≈ tosylate”. Besides, the “Total imp., order of salts” value in data set [6] (In IPA/EtOH) is “fumarate > maleate > HBr > HCl > tosylate”; in data set [6] (In water), “fumarate > HBr > HCl > tosylate > maleate”.
